Source: ChEMBL document CHEMBL1137036, “Synthesis and evaluation of 2-amino-8-alkoxy quinolines as MCHr1 antagonists. Part 3” (Bioorg Med Chem Lett, 2004)
pIC50: −log10 of the molar value.

Key:
[1] = target: T1, Melanin-concentrating hormone receptor 1 (Homo sapiens, UniProt Q99705); assay: Concentration required to inhibit binding of [125I]MCH radioligand to human Melanin-concentrating hormone receptor 1 in IMR-32 I3.4.2 cell membranes
[2] = target: T1, Melanin-concentrating hormone receptor 1; assay: Concentration required to inhibit 50% of melanin-concentrating hormone induced [Ca2+] flux in IMR-32 cells measured by using a fluorometric imaging plate reader; assay type: functional, cell-based
[3] = Half life in plasma was determined at the peroral dose of 10 mg/kg in diet-induced obese (DIO) mice; assay type: ADME, organism-based; design: dose 10 mg/kg, route oral; conditions: mouse, po
[4] = Maximum concentration in plasma was determined at the peroral dose of 10 mg/kg in diet-induced obese (DIO) mice; unit may be ng/mL or ng/g; assay type: ADME, organism-based; design: dose 10 mg/kg, route oral; conditions: mouse, po
[5] = Half life in brain was determined at the peroral dose of 10 mg/kg in diet-induced obese (DIO) mice; assay type: ADME, organism-based; design: dose 10 mg/kg, route oral; conditions: mouse, po
[6] = Area under curve in brain was determined at the peroral dose of 10 mg/kg in diet-induced obese (DIO) mice; unit may be ng.h/mL or ng.h/g; assay type: ADME, organism-based; design: dose 10 mg/kg, route oral; conditions: mouse, in vivo, po
[7] = Maximum concentration in brain was determined at the peroral dose of 10 mg/kg in diet-induced obese (DIO) mice; unit may be ng/mL or ng/g; assay type: ADME, organism-based; design: dose 10 mg/kg, route oral; conditions: mouse, po
[8] = Area under curve in plasma was determined at the peroral dose of 10 mg/kg in diet-induced obese (DIO) mice; unit may be ng.h/mL or ng.h/g; assay type: ADME, organism-based; design: dose 10 mg/kg, route oral; conditions: mouse, in vivo, po
[9] = Area under curve in brain was determined in diet-induced obese (DIO) mice; assay type: ADME, tissue-based; conditions: mouse, in vivo
[10] = Brain/plasma ratio was determined in diet-induced obese (DIO) mice; assay type: ADME, cell-free; conditions: mouse, brain and plasma

T1 sequence (Q99705 whole entry): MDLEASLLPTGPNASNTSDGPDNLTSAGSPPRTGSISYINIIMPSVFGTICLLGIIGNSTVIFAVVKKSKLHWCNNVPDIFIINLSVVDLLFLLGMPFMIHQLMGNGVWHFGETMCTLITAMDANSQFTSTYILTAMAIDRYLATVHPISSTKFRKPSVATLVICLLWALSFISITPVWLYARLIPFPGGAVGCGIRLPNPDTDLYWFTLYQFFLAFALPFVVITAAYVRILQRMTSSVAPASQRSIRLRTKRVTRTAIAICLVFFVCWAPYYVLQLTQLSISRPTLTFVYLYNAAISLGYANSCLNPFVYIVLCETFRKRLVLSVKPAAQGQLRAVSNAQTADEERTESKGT

Row | Structure (SMILES) | pIC50 [1] | pIC50 [2] | other results
1 | CC(C)Cc1ccc(N2CCC(Oc3cccc4ccc(NCC5CC5)nc34)C2)cc1 (stereo not drawn) | 6.83 | < 5.00 | –
2 | CCC(c1ccccc1)N1CCC(Oc2cccc3ccc(N)nc23)C1 (stereo not drawn) | 7.69 | 6.65 | –
3 | Nc1ccc2cccc(O[C@H]3CCN(Cc4ccc5c(c4)OCO5)C3)c2n1 | 7.15 | 7.52 | half-life [3]: 6.5 h; Cmax [4]: 543 ng/mL; half-life [5]: 8.3 h; AUC [6]: 1710 ng·h/mL; Cmax [7]: 183 ng/mL; AUC [8]: 1350 ng·h/mL
4 | Nc1ccc2cccc(OCCCNC(=O)c3cccc(Cl)c3)c2n1 | – | 8.15 | AUC [9]: 11 ng·h/mL; Kp [10]: 0.03
5 | CC(C)Cc1ccc(N2CCC(Oc3cccc4ccc(N)nc34)C2)cc1 (stereo not drawn) | 8.92 | 7.27 | –
6 | CNc1ccc2cccc(OC3CCN(c4ccc5c(c4)OCCO5)C3)c2n1 (stereo not drawn) | 7.59 | 6.61 | –
7 | Nc1ccc2cccc(O[C@@H]3CCN(Cc4ccc5c(c4)OCO5)C3)c2n1 | 7.15 | 5.80 | –
8 | CC(C)Cc1ccc(N2CCC(Oc3cccc4ccc(NCc5ccc(-c6cccc(C(F)(F)F)c6)o5)nc34)C2)cc1 (stereo not drawn) | 7.39 | 7.39 | –
9 | Nc1ccc2cccc(O[C@H]3CCN(C(=O)c4ccc5c(c4)OCO5)C3)c2n1 | 6.14 | 5.04 | –
10 | Nc1ccc2cccc(OCCCNCc3ccc(Cl)c(C(F)(F)F)c3)c2n1 | – | – | AUC [9]: 9520 ng·h/mL; Kp [10]: 0.96
11 | CC(C)(C)c1ccc(S(=O)(=O)N2CC[C@H](Oc3cccc4ccc(N)nc34)C2)cc1 | 6.68 | 5.94 | –
12 | Nc1ccc2cccc(O[C@@H]3CCN(Cc4ccccc4)C3)c2n1 | 6.24 | < 5.00 | –
13 | Nc1ccc2cccc(O[C@@H]3CCN(c4ccc5c(c4)OC(F)(F)O5)C3)c2n1 | 7.41 | 6.27 | –
14 | CC(=O)Nc1ccc(CN2CC[C@H](Oc3cccc4ccc(N)nc34)C2)cc1 | 7.05 | 5.90 | –
15 | CC(Cc1ccc2c(c1)OCO2)N1CCC(Oc2cccc3ccc(N)nc23)C1 (stereo not drawn) | 8.66 | 7.10 | –
16 | Nc1ccc2cccc(O[C@H]3CCN(Cc4ccccc4)C3)c2n1 | 6.92 | 5.77 | –
17 | CC(C)(C)c1ccc(CN2CC[C@H](Oc3cccc4ccc(N)nc34)C2)cc1 | 9.00 | 7.52 | –
18 | Nc1ccc2cccc(OC3CCN(c4ccc5c(c4)OCCO5)C3)c2n1 (stereo not drawn) | 8.57 | 7.29 | –
19 | Nc1ccc2cccc(OC3CCN(c4ccc5c(c4)OC(F)(F)O5)C3)c2n1 (stereo not drawn) | 9.05 | 7.65 | half-life [3]: 4.6 h; Cmax [4]: 331 ng/mL; half-life [5]: 5.1 h; AUC [6]: 17700 ng·h/mL; Cmax [7]: 2860 ng/mL; AUC [8]: 801 ng·h/mL
20 | CN(C)c1ccc2cccc(OC3CCN(c4ccc5c(c4)OCO5)C3)c2n1 (stereo not drawn) | < 5.70 | < 5.00 | –
